Test results from patent publication US20250275929A1, “INTRAOPERATIVE TOPICALLY-APPLIED NON-IMPLANTABLE RAPID RELEASE PATCH” (PRIVO TECHNOLOGIES, INC., priority 2017, published 2025).

Assay: HPLC chromatograms of agent from patch and from gamma sterilized patch
Type: physicochemical
Source text: FIGS. 9A, 9B, and 9C are graphs showing that agent(s) included within a patch, according to embodiments of the present invention, are not modified when incorporated into the patch or when the patch is sterilized. FIG. 9A is a graph showing a high-performance liquid chromatography (H PLC) chromatogram of a cisplatin standard. FIG. 9B is a graph showing an HPLC chromatogram of a patch, which illustrates that the cisplatin was not modified.
The patch is sterilized prior to application to a surgical cavity, for example after the patch is manufactured and before packaging. In some embodiments, gamma sterilization is employed to sterilize the patch. FIGS. 9A-9C show HPLC chromatograms at various stages of product synthesis. The HPLC apparatus was an Agilent 1100 Series HPLC using a water/methanol/sodium lauryl sulfate solvent mixture adjusted to pH 2.5 with trifluoromethanesulfonic acid. FIG. 9A is an HPLC chromatogram of a cisplatin standard. FIG. 9B is an HPLC chromatogram of a cisplatin sample taken from a patch that was dissolved in a solution, which illustrates that the cisplatin was not modified while in the patch. […] Similar experiments were conducted using oxaliplatin and 5-fluorouracil. This experiment proves that the patches are able to be manufactured and sterilized while maintaining the integrity of the agent(s) included within.

SMILES: N.N.[Cl][Pt][Cl] [cisplatin]
- integrity of agent after gamma ray sterilization of patch (HPLC) (gamma ray sterilization for 25 minutes): not modified
- integrity of agent while in the patch (HPLC) (sample taken from a patch dissolved in a solution): not modified
